According to patent US20140243335A1, “SUBSTITUTED HYDOXAMIC ACIDS AND USES THEREOF” (Millennium Pharmaceuticals, Inc., priority 2010, published 2014):
Where a name gives a salt, the structure may show the parent alone.

Biological target: T1, purified human HDAC6 (Homo sapiens, UniProt Q9UBN7)
T1 construct: purchased BPS Bioscience 5006
T1 sequence (Q9UBN7 1-1215): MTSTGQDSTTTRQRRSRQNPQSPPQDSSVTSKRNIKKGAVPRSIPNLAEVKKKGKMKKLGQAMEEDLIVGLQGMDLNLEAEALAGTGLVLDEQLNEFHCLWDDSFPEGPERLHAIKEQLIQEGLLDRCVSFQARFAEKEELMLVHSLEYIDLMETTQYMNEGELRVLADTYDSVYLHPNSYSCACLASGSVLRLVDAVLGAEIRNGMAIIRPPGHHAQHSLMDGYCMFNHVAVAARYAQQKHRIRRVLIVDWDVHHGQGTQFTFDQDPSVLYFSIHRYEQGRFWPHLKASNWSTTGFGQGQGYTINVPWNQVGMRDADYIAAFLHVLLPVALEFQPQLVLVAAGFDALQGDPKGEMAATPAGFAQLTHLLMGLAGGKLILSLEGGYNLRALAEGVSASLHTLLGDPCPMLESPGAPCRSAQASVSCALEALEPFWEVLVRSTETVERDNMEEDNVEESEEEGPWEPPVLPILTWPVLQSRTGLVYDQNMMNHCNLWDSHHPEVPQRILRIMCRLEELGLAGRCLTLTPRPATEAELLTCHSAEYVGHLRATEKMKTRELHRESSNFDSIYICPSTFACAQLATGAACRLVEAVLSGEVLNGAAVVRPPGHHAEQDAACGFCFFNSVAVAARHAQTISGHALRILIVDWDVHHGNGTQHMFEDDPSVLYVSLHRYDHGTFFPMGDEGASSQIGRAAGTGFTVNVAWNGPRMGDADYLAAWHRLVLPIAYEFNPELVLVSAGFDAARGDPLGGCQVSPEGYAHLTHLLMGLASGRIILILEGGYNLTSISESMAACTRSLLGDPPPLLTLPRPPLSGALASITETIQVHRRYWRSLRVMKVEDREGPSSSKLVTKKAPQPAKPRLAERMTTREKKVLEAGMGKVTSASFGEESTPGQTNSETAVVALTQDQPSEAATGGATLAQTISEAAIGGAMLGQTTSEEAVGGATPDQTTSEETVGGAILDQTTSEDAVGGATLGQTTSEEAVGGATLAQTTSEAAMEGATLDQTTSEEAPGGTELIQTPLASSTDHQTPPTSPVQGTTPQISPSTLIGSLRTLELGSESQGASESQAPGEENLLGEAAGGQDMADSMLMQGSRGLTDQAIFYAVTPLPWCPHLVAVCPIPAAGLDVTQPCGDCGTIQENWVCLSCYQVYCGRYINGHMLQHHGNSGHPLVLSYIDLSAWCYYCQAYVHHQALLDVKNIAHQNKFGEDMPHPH
Test: HDAC6 Enzyme Assay
Format: biochemical
Conditions: HDAC6 inhibition at a compound concentration of 0.412 μM; read-out: Percent Inhibition at 0.412 μM

| Compound | inhibition at 0.412 µM |
| --- | --- |
| COc1cccc(NC2CCc3ccc(C(=O)NO)cc3C2)c1 (stereo not shown) [Compound I-84, N-hydroxy-7-[(3-methoxyphenyl)amino]-5,6,7,8-tetrahydronaphthalene-2-carboxamide] | 82% |
| CC(C)(C)C(=O)N[C@H]1CCc2ccc(C(=O)NO)cc2C1 [Compound I-75, (7S)-7-[(2,2-dimethylpropanoyl)amino]-N-hydroxy-5,6,7,8-tetrahydronaphthalene-2-carboxamide] | 90% |
| Cc1ccc(-c2cc(C(=O)N[C@H]3CCCc4cc(C(=O)NO)ccc43)[nH]n2)cc1 [Compound I-72, N-{(1S)-6-[(hydroxyamino)carbonyl]-1,2,3,4-tetrahydronaphthalen-1-yl}-3-(4-methylphenyl)-1H-pyrazole-5-carboxamide] | 54% |
| CC1(C(=O)NC2CCc3cc(C(=O)NO)ccc3C2)CCNCC1 (stereo not shown) [Compound I-170, N-{6-[(hydroxyamino)carbonyl]-1,2,3,4-tetrahydronaphthalen-2-yl}-4-methylpiperidine-4-carboxamide] | 73% |
| O=C(NO)c1ccc2c(c1)CC(C1CCNCC1)CC2 (stereo not shown) [Compound I-212, N-hydroxy-7-piperidin-4-yl-5,6,7,8-tetrahydronaphthalene-2-carboxamide. HCl] | 72% |
| O=C(NO)c1ccc2c(c1)CCC(NCc1ccc(Cl)cc1)C2 (stereo not shown) [Compound I-106, 6-[(4-chlorobenzyl)amino]-N-hydroxy-5,6,7,8-tetrahydronaphthalene-2-carboxamide] | 90% |
| CCC(C)(C)C(=O)NC1CCCc2cc(C(=O)NO)ccc21 (stereo not shown) [Compound I-15, 5-[(2,2-dimethylbutanoyl)amino]-N-hydroxy-5,6,7,8-tetrahydronaphthalene-2-carboxamide] | 11% |
| Cc1nc(C(=O)N2C3CCC2c2cc(C(=O)NO)ccc23)cs1 (stereo not shown) [Compound I-208, N-hydroxy-9-[(2-methyl-1,3-thiazol-4-yl)carbonyl]-1,2,3,4-tetrahydro-1,4-epiminonaphthalene-6-carboxamide] | 34% |
| O=C(NO)c1ccc2c(c1)C1CCC2N1C(=O)c1ccc(-c2ccccc2)cc1 (stereo not shown) [Compound I-199, 9-(biphenyl-4-ylcarbonyl)-N-hydroxy-1,2,3,4-tetrahydro-1,4-epiminonaphthalene-6-carboxamide] | 70% |
| CC(C)(Oc1ccccc1Cl)C(=O)N[C@H]1CCCc2cc(C(=O)NO)ccc21 [Compound I-69, (5S)-5-{[2-(2-chlorophenoxy)-2-methylpropanoyl]amino}-N-hydroxy-5,6,7,8-tetrahydronaphthalene-2-carboxamide] | 44% |
| O=C(NO)c1ccc2c(c1)CC(c1ccncc1)CC2 (stereo not shown) [Compound I-88, N-hydroxy-7-pyridin-4-yl-5,6,7,8-tetrahydronaphthalene-2-carboxamide] | 89% |
| O=C(NO)c1ccc2c(c1)CC(Oc1ccncc1)CC2 (stereo not shown) [Compound I-86, N-hydroxy-7-(pyridin-4-yloxy)-5,6,7,8-tetrahydronaphthalene-2-carboxamide] | 91% |
| CC(C)(C)OC(=O)N1CCC(C)(C(=O)Nc2cc(OC3CCc4cc(C(=O)NO)ccc4C3)ccn2)CC1 (stereo not shown) [Compound I-214, tert-Butyl 4-({[4-({6-[(hydroxyamino)carbonyl]-1,2,3,4-tetrahydronaphthalen-2-yl}oxy)pyridin-2-yl]amino}carbonyl)-4-methylpiperidine-1-carboxylate] | 88% |
| O=C(NO)c1ccc2c(c1)CCCC2NC(=O)c1cc(-c2ccc(F)cc2)n[nH]1 (stereo not shown) [Compound I-43, 3-(4-fluorophenyl)-N-{6-[(hydroxyamino)carbonyl]-1,2,3,4-tetrahydronaphthalen-1-yl}-1H-pyrazole-5-carboxamide] | 71% |
| O=C(NO)c1ccc2c(c1)CCCC2NC(=O)c1cc(C(F)(F)F)cc(C(F)(F)F)c1 (stereo not shown) [Compound I-12, 5-{[3,5-bis(trifluoromethyl)benzoyl]amino}-N-hydroxy-5,6,7,8-tetrahydronaphthalene-2-carboxamide] | 15% |
| CCN1CCC(C)(C(=O)Nc2cc(OC3CCc4cc(C(=O)NO)ccc4C3)ccn2)CC1 (stereo not shown) [Compound I-222, 1-ethyl-N-[4-({6-[(hydroxyamino)carbonyl]-1,2,3,4-tetrahydronaphthalen-2-yl}oxy)pyridin-2-yl]-4-methylpiperidine-4-carboxamide] | 91% |
